For this assay, the target named is T1, Rv2607 (PNPOx) (Mycobacterium tuberculosis, UniProt P9WIJ1).
T1 construct: gene pdxH
T1 sequence (P9WIJ1 whole entry): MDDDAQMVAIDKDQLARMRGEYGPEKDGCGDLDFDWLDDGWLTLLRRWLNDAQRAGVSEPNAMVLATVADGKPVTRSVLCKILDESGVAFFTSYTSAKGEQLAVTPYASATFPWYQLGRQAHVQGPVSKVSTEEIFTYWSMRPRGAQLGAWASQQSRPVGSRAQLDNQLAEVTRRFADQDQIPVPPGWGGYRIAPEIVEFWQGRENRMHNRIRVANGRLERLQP

For the compound `Cc1cc2nc3c(=O)[nH]c(=O)nc-3n(C[C@H](O)[C@H](O)[C@H](O)COP(=O)(O)O)c2cc1C` [FMN], the “native nESI-MS of intact complex; ESI-MS identification of extracted cofactor” value was “The yellow cofactor bound tightly to Rv2607 as purified and was unambiguously identified as FMN”.

For the origin of these results see publication PMC3215729, “Rv2607 from Mycobacterium tuberculosis Is a Pyridoxine 5′-Phosphate Oxidase with Unusual Substrate Specificity” (PLoS ONE, 2011).
